Columns and labels:
Assay type in all cases: cell-based
[1] = system: PRL-1 overexpressing HEK293 cells; experiment: Wound healing assay; conditions: for cell migration, wound healing: 7 h, PRL-1 overexpressing cells
Procedure: (§1) To study if procyanidin C2 is able to inhibit PRL-1 and PRL-3 in cells, HEK293 cells were treated in a wound-healing assay (see the experimental procedures). […] As a control the empty vector cell line was again utilized. […] The migration speed was for all cell lines similar when treated with 50 μM of 9. To further corroborate these findings we performed additionally a transwell assay as an alternative way to study cell migration.
(§2) Fig 6 Wound healing abilities of PRL-1 or PRL-3 overexpressing or empty vector control HEK293 cell lines were analyzed in the presence of compound 9 or medium only. Cells were seeded at a concentration of 800,000 cells per insert and procyanidin C2 (9) was added at a concentration of 25 and 50 μM. A) Pictures of the wound gaps were taken at 0 h and 7 h for both conditions (with and without treatment). B) Quantification of the wound healing experiment. Speed of migration is shown for combined data from different replicates, as mean ± SD (n = 38–88). Two-sided t-tests with Welsh correction were performed for p < 0.05. ns = not significant;***: < 0.001; **: < 0.01; *: < 0.05. C) Effect of polyphenolic compounds in a transwell assay on the cell migration of HEK293 empty vector and PRL-3 overexpressing cell lines. Cells were seeded at a concentration of 100,000 cells per insert and procyanidin C2 (9) was added at a final concentration of 25 and 50 μM. Migration was allowed for 16 h before harvesting and staining with calcein AM for fluorescent readout. Mean ± SD (n = 60–72) is shown for combined data from different replicates. Two-sided t-tests with Welsh correction were performed for p < 0.05. ns = not significant. D) Quantification of wound healing experiment including blocking PRL-1 and PRL-3 with analog 3. Speed of migration is shown for combined data from different replicates, as mean ± SD (n = 63–82). Two-sided t-tests with Welsh correction were performed for p < 0.05.
Wound healing experiments were carried out with μ-dish 35mm culture inserts. 8 × 10^5 cells/mL of the respective HEK293 stable cell lines were seeded into each of the two insert wells and allowed to settle for 40 h in the presence of tetracycline. Then the inserts were gently removed and growth medium supplemented with 7.5% FBS and 0.1% tetracycline was added as well as procyanidin C2 (9) or procyanidin B3 (8) at a final concentration of 25, 50 or 75 μM. For the experiment including blocking of PRLs with analog 3, the latter one was added at a final concentration of 35 μM, followed by addition of procyanidin C2 (9) at either 25 or 50 μM final concentration. Negative controls contained growth medium with FBS only. Pictures of the wound gap were taken at 0 h and 7 h time points. A Zeiss Cellobserver HS microscope was used with 10 × magnitude. For data analysis, in each experiment, the distances between both cell fronts at time point 0 h and 7 h were measured by taking 20 different measuring points. Then all the measurements from different replicates (4) for each experiment were combined and analyzed by t-test using Welsh correction in GraphPad Prism. Data are shown with 99% confidence intervals.

[2] = system: HEK293 empty vector cell line; experiment: Transwell cell migration assay; conditions: 16 h, empty vector cells
Procedure: as §1, §2
(§3) HEK293 empty vector, PRL-1 and PRL-3 overexpressing cells were kept in selection medium (DMEM medium without Phenol red, supplemented with 10% FBS, 1% glutamine and 0.2% hygromycin and blasticidin) for one week until full confluency. Then, 0.1% tetracycline (1 mg/ml stock solution in ethanol) was added for induction of PRL-1 and PRL-3 expression in HEK293 PRL-1 and HEK PRL-3 wt 24 h prior plating on transwell inserts. For comparison, HEK293 empty vector was also treated with tetracycline. After 24 h, the medium was removed, cells were washed with PBS and starvation medium supplemented with 0.1% tetracycline was added. […] Then, 3x100 μL were taken from each well and transferred to a black assay plates and the relative concentration of the fluorescent product formed in the cells was determined by following the emission at 520 nm with excitation at 452 nm. […]

[3] = system: PRL-3 overexpressing HEK293 cell line; experiment: Transwell cell migration assay; conditions: 16 h, PRL-3 overexpressing cells
Procedure: as §1, §2, §3

| SMILES | cell migration, wound healing ([1]; 50 μM) | cell migration, wound healing ([1]; 75 μM) | migration, wound healing, PRLs blocked with analog 3 ([1]; 25 μM of 9 plus 35 μM analog 3, PRL-1 overexpressing cells) | cell migration, wound healing ([1]; 25 μM) | migration speed, wound healing, PRLs blocked with analog 3 ([1]; 50 μM of 9 plus 35 μM analog 3, PRL-1 overexpressing cells) | cell migration, transwell ([2]; 25 μM) | cell migration, transwell ([2]; 50 μM) | cell migration, transwell ([3]; 25 μM) | cell migration, transwell ([3]; 50 μM) |
| --- | --- | --- | --- | --- | --- | --- | --- | --- | --- |
| Oc1cc(O)c2c(c1)O[C@H](c1ccc(O)c(O)c1)[C@@H](O)[C@@H]2c1c(O)cc(O)c2c1O[C@H](c1ccc(O)c(O)c1)[C@@H](O)C2 [Procyanidin B3 (8), Procyanidin B3] | significantly decreased the number of migrating cells | further decreased migration | – | – | – | – | – | – | – |
| Oc1cc(O)c2c(c1)O[C@H](c1ccc(O)c(O)c1)[C@@H](O)[C@@H]2c1c(O)cc(O)c2c1O[C@H](c1ccc(O)c(O)c1)[C@@H](O)[C@@H]2c1c(O)cc(O)c2c1O[C@H](c1ccc(O)c(O)c1)[C@@H](O)C2 [Procyanidin C2 (9), Procyanidin C2] | did not change any further compared to 25 μM | – | not fully restored to the same level as the empty vector cell line | slight drop in cell migration | exactly the same as for the empty vector cell line | did not lead to a significant change in cell migration | significant increase in cell migration | did not lead to a significant change in cell migration | significant decrease in migration |

From publication PMC4520450, “Procyanidins Negatively Affect the Activity of the Phosphatases of Regenerating Liver” (PLoS ONE, 2015)
